The values below come from US4703061A, “Gamma-aminobutyric acid derivatives, process for production thereof, and use thereof as medicaments” (priority 1984, dated 1987).

Series [1] concerns motor activity induced by atropine. Nature of the series: Antagonistic effect against atropine (automex method). Type of series: in vivo, ddY-strain male mice. The method, then:
(§1) In Tests 1 to 4 given below, ddY-strain male mice (body weight 20-25 g) were used, and the experiments were carried out in a semi-soundproof, constant-temperature room kept at a temperature of 23±1° C. and a humidity of 55±2%. The mice were allowed to take feed and water freely.
Test 4: Antagonistic effect against atropine (automex method)
Each of the test compounds was intraperitoneally administered to mice divided into 6-membered groups, and immediately then, atropine was subcutaneously injected into the mice in a dose of 30 mg/kg. The effect of each test compound on the enhancement of motor activity induced by atropine was examined in accordance with the automex method.

Series [2] deals with motor activity enhanced by methamphetamine. Description: Antagonistic effect against methamphetamine (automex method). Type of series: in vivo, ddY-strain male mice. The note with it: for Motor activity (total number of counts): 500 mg/kg i.p. + methamphetamine 3 mg/kg s.c. The method, then: as §1
Test 2: Antagonistic effect against methamphetamine (automex method)
Mice were used in 5-membered groups. Each of the test compounds was intraperitoneally administered to the mice in a predetermined dose, and immediately then, the mice were subcutaneously injected with methamphetamine in a dose of 3 mg/kg. The action of the test compounds on motor activity enhanced by methamphetamine was examined in accordance with the automex method given above.

The test system of series [3] is cycloheximide-induced amnesia model. Nature of the series: Effects on CXM-induced amnesia (step-down retention test). The following applies: for Escape learning latency (mean ± S.E.) / Step-down latency (mean ± S.E.): retention test 24 hours. Type of series: in vivo, ddY-strain male mice. The method, then:
The test animals used were ddY-strain male mice (body weight 30-35 g). The experiment was carried out indoors at about 20° C., and the mice were allowed to take feed and water freely. 2. Effects on memorized behaviors
A device comprised of a floor grid surrounded on four sides by acrylic glass walls each having a lateral dimension of 21 cm and a wooden platform, 4×4×4 cm in size, fixed centrally to the floor grid was placed in a wooden semi-soundproof box having a size of 21×21×40 cm with a 15W electric bulb suspended from its ceiling.
The floor grid consisted of stainless steel rods, 3 mm in diameter, arranged at intervals of 8 mm. An intermittent electric shock (1 Hz, 0.5 sec., 60 V DC) was applied to the grid by an electric impulse apparatus and an isolator.
A mouse was placed in a predetermined direction on the platform. Immediately after the mouse stepped down onto the floor grid (when the mouse's four limbs left the platform), an electric shock was applied to the floor grid, and the intermittent application of the electric shock was continued until the mouse climbed up the platform to escape from the electric shock. The time which elapsed until the mouse stepped down from the platform (SDL, step down latency) and the time which elapsed until the mouse escaped to the platform from the electric shock (ELL, escape learning latency) were measured.
By the same procedure as in the training test, a mouse was placed on the platform, and its step down latency (SDL) was measured. The cut-off time was 300 seconds.
After the mouse stepped down, or the cut-off time elapsed, the mouse was placed on the floor grid at a corner of the device with its head directed in a direction opposite to the platform. An electric shock was applied to the mouse and its escape learning latency (ELL) was measured.
Mice divided into groups each consisting of not less than 20 mice were subjected to the training test, and immediately then subcutaneously injected with CXM (150 mg/kg). Twenty-four hours later, the mice was subjected to the retention test.
Immediately after administration of CXM or application of ECS, a 0.9% normal saline solution of each of the test compounds was intraperitoneally administered to the mice. Separately, a 5% gum arabic solution of CXM was administered to the mice in a control group.

In series [4] the test system is sleeping induced by pentobarbital. Description: Effect of prolonging the time of sleeping induced by pentobarbital. Type of series: in vivo, ddY-strain male mice. The note with it: pentobarbital sodium 50 mg/kg s.c. How it is done: as §1
Test 3: Effect of prolonging the time of sleeping induced by pentobarbital
The effects of the test compounds on sleeping induced by pentobarbital were examined. The disappearance of righting reflex for 5 seconds or more was used as an index of sleeping. Mice were divided into 10-membered groups. Each of the test compounds was intraperitoneally administered to the mice in the doses indicated. Immediately then, pentobarbital sodium salt was subcutaneously injected into the mice in a dose of 50 mg/kg, and the sleeping time was compared with that of a group to which pentobarbital alone was injected (control).

The conditions of series [5]: background statement; cited from earlier work.
For series [6] the following is noted: background statement; cited from earlier work. The source holds these as a separate data set.
The mark [7] stands for this setting: 500 mg/kg i.p., CXM 150 mg/kg s.c.
Setting [8] is: 1000 mg/kg i.p., CXM 150 mg/kg s.c.

Structures can show the parent of a compound that is named as a salt.

On to `CN1[C@@H]2CC[C@H]1C[C@@H](OC(=O)C(CO)c1ccccc1)C2` (stereo partly drawn) [Atropine, atropine], for which the “Motor activity (total number of counts)” value in series [1] (atropine alone, 30 mg/kg, 5 minutes) was 59 counts; in series [1] (atropine alone, 30 mg/kg, 10 minutes), 233 counts; in series [1] (atropine alone, 30 mg/kg, 15 minutes), 425 counts; in series [1] (atropine alone, 30 mg/kg, 20 minutes), 620 counts; in series [1] (atropine alone, 30 mg/kg, 25 minutes) it was 806 counts; in series [1] (atropine alone, 30 mg/kg, 30 minutes), 964 counts.

Turning to `CC(C)(CO)C(O)C(=O)NCCCC(=O)O` (stereo not drawn) [Ca salt of hopantenic acid, Calcium 4(2,4-dihydroxy3,3-dimethyl-butylamide)butyrate, reference compound], the “Motor activity (total number of counts)” value came out at 26 counts in series [2] (5 minutes); 55 counts in series [2] (10 minutes); 94 counts in series [2] (15 minutes); 144 counts in series [2] (20 minutes); 273 counts in series [2] (25 minutes); 408 counts in series [2] (30 minutes). The “Motor activity (total number of counts)” value worked out at 16 counts in series [1] (600 mg/kg i.p. + atropine 30 mg/kg s.c., 5 minutes); 16 counts in series [1] (600 mg/kg i.p. + atropine 30 mg/kg s.c., 10 minutes); 29 counts in series [1] (600 mg/kg i.p. + atropine 30 mg/kg s.c., 15 minutes); 56 counts in series [1] (600 mg/kg i.p. + atropine 30 mg/kg s.c., 20 minutes); 88 counts in series [1] (600 mg/kg i.p. + atropine 30 mg/kg s.c., 25 minutes); 151 counts in series [1] (600 mg/kg i.p. + atropine 30 mg/kg s.c., 30 minutes). In series [2] (500 mg/kg, result in words), the “antagonistic effect against the increase of motor activity induced by methamphetamine” value is “scarcely observed”. In addition, the “Escape learning latency (mean ± S.E.)” value in series [3] (setting [7]) came out at 10.3 ± 0.7 s; in series [3] (setting [8]) it was 8.2 ± 1.0 s; in series [3] (1000 mg/kg i.p., without CXM), 5.6 ± 0.8 s. The “Step-down latency (mean ± S.E.)” value in series [3] (setting [7]) amounted to 122.3 ± 13.0 s; in series [3] (setting [8]), 187.7 ± 19.7 s; in series [3] (1000 mg/kg i.p., without CXM), 275.9 ± 9.7 s. Moreover, the memory activating action result in series [3] (without CXM, vs control group, result in words) was “did not show memory activating action”. In addition, the values for the Sleeping time in series [4] (1000 mg/kg i.p.) and in series [4] (2000 mg/kg i.p.) were 57.0 ± 6.7 min and 67.0 ± 5.9 min, respectively.

Turning to `NCCCC(=O)O` [gamma-aminobutyric acid], the excretion into urine entry in series [5] is “easily excreted into urine”. The “transmigration through the blood brain barrier” value in series [6] is “hardly transmigrates through the blood brain barrier”.
